{"source": "patent US20180353524A1", "about": "“CANCER TREATMENT USING 2-DEOXY-2-FLUORO-L-FUCOSE IN COMBINATION WITH A CHECKPOINT INHIBITOR” (SEATTLE GENETICS, INC., priority 2015, published 2018)", "key": {"[1]": {"system": "dendritic cells", "test": "DC markers in co-cultures of T-cells and DCs (FACS)", "assay_type": "cell-based, human", "experimental": "T-cells were isolated from 10 mL of whole blood which was centrifuged first at 1200 rpm (300×g) for 10 min (without brakes). The top layer containing platelets was removed carefully without disrupting the white blood cell layer. Then RosetteSep™ Human T-Cell Enrichment Cocktail (Pan T-cells from StemCell technologies, Vancouver, BC) was added to the remaining blood (500 μL/10 mL blood). This was incubated for 20 min and then 1 mL FBS was added along with 10 mL PBS. Histopaque (20-25 mL) placed in a 50 mL Falcon the prepared blood/PBS solution was overlaid very slowly. This was centrifuged with no brake (25° C., 1500 rpm, 25 min). The top layer was removed and the T-cells in the buffy coat layer were then removed to a new 50 mL tube. The T-cells were washed with PBS, resuspended in 1 mL ACK lysis buffer and topped up to 25 mL, incubated for 5 min, brought up to 50 mL with PBS, and then pelleted. This red blood cell lysis step was repeated a second time.\nPBMCs were isolated similarly to the T-cells, except that 90 mL of blood were used and after the removal of platelets the RosetteSep™ Human T-Cell Enrichment Cocktail was not added, instead an equal volume of PBS (90 mL) was added before overlaying on Histopaque. Centrifugation over Histopaque as above results in PBMC-containing buffy coat.\nDCs (20000-30000/well) and 10 times as many T-cells were plated in each well in a total of 200 μL/well in DC medium. Co-cultures were incubated 24 h after which cells evaluated for DC maturation markers as described below.\nTranswell assays were performed in 24-well plates. Co-cultures were plated out as described above with the final volume per well of 500 μL. For the transwell samples DCs were plated in the well and T-cells placed into the insert. The cells were then incubated 24 h and examined in the same manner as co-cultures without transwells.\nDCs were grown as described until day 8 when there were split into two flasks, one with normal media and the other in serum free media. While no serum was present, X-VIVO™ 15 media contains growth factors which help maintain the health of the cultures. The co-culture experiment was performed as above in 48-well plates.\nCo-cultures were examined using FACS analysis. After incubation, cells were washed in BD stain buffer (BSA) with Human Fc block (EMD Millipore) and incubated on ice for 30 min. Cells were then stained with fluorescently labeled anti-MHCII, anti-CD86, anti-CD83, and anti-CD40 primary antibodies (BD, 1:100 or 1:50 in BD stain buffer (BSA)) or with appropriate isotype controls (ice, dark, 40 min). Cells were then washed twice in BD stain buffer (BSA) and analyzed on an LSRII flow cytometer."}, "[2]": {"system": "Galectin-3", "test": "Activated T-cell expression of Galectin-3 (FACS)", "assay_type": "cell-based, human", "details": "CD3/CD28 activated T-cells, overnight", "experimental": "Purified T-cells were plated in 12-well plates (10^6 cells/well, 1-2 mL T-cell medium) and were activated with CD3/CD28 beads (4 μL beads/2 mL media, Miltenyi Biotec). Cells were incubated at 37° C. overnight and were then analyzed for Galectin-3 expression after fixation and permeabilization followed by FACS analysis."}, "[3]": {"system": "CMV reactive human PMBCs", "test": "In vitro 2FF and anti-PD1 antibody combination in human PBMCs (IFNγ, IL12p70)", "details": "T-cells matured with 100-200 μM 2FF, co-culture with DCs, 5 μg/mL CMV antigen", "method": "CMV reactive human PMBCs from a CMV positive donor (Astarte™ Biologics) were thawed, plated into a 6-well plate and cultured overnight in DC media (30% DMEM 70% X-vivo+2 mM glutamax+10% ATB serum+1% PS). The following day the supernatant was collected to isolate T-cells and the adhering cells were washed in media and then replenished with 2 mL media supplemented with IL4 (100 ng/μL) and GMCSF (200 ng/μL) per well to differentiate and proliferate the adhering monocytes into DCs. The plate was incubated for 4-5 days and then cells were moved into a T25 flask. Each time the cells were passaged (every 2-3 days) new cytokines were given. The T-cells in the supernatant were isolated using StemSep human T-cell enrichment kit (Stemcell technologies). The T-cells were then resuspended in T-cell media (RPMI+10% Fetal calf serum, 1% PS) and spilt into two T25 flasks (with or without 100-200 μM 2FF). CD3CD28 antibody coated beads (Miltenyi Biotec) (20 μL/flask) were added to activate the T-cells. After 24 h IL2 was added (100 ng/μL). Each time the cells were passaged new IL2 and 2FF were added. […]\nIFNγ and IL12p70 in the supernatants from 5 day co-cultures were measured using a Lumenix assay and the concentration of each cytokine was calculated using an internal standard curve."}}}
{"smiles": "C[C@@H]1OC(O)[C@@H](F)[C@H](O)[C@@H]1O", "note": "(stereo partly drawn) [2-deoxy-2-fluoro-L-fucose]", "values": [{"measurement": "DC activation and maturation markers, DCs alone", "setting": "[1]; DCs alone, with or without treatment", "value": "do not show changes in these markers"}, {"measurement": "DC activation and maturation markers MHCII, CD86, CD83 and CD40 (MFI vs control co-culture)", "setting": "[1]; DCs co-cultured 24 h with autologous T-cells expanded with 100-200 μM, serum-containing medium", "value": "increases in the DC activation and maturation markers MHCII, CD86, CD83 and CD40"}, {"measurement": "DC activation and maturation markers, transwell co-culture", "setting": "[1]; T-cells and DCs separated by transwell inserts", "value": "do not occur when transwell inserts are used"}, {"measurement": "DC activation and maturation markers, serum-free co-culture", "setting": "[1]; serum-free medium (no antigen)", "value": "does not provide the same increases"}, {"measurement": "galectin-3 levels in T-cells", "setting": "[2]", "value": "reduction in galectin-3 levels"}, {"measurement": "antigen specific T cell response (IFNγ, IL12p70) of 2FF matured T-cells vs control cell", "setting": "[3]", "value": "elevated antigen specific T cell response"}]}
